# Measured values reported in ChEMBL document CHEMBL1140010, “Discovery of novel prostaglandin analogs of PGE2 as potent and selective EP2 and EP4 receptor agonists” (Bioorg Med Chem Lett, 2007).
# How the values were obtained:
# [1] = target: T1, Prostaglandin E2 receptor EP2 subtype (Homo sapiens, UniProt P43116); test: Displacement of [3H]PGE2 from human EP2 receptor expressed in HEK293 cells; format: cell-based
# [2] = target: T2, Prostaglandin E2 receptor EP4 subtype (Homo sapiens, UniProt P35408); test: Displacement of [3H]PGE2 from human EP4 receptor expressed in HEK293 cells; format: cell-based
# T2 sequence (P35408 whole entry): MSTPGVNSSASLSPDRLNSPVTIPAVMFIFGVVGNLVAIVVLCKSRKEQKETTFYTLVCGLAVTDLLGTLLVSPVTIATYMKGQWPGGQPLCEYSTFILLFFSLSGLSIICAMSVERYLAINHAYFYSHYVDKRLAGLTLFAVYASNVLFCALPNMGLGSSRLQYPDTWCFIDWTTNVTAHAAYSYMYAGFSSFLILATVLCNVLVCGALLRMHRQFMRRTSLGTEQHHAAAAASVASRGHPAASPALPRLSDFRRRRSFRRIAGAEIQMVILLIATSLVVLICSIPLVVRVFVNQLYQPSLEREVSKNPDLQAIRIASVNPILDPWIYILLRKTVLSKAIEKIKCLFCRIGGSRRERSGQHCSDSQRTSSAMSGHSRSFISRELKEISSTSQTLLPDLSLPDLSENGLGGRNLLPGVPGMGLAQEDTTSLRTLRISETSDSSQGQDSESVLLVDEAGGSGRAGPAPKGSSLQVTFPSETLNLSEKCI
# [3] = target: T1, Prostaglandin E2 receptor EP2 subtype; test: Agonist activity at EP2 receptor expressed in HEK293 cells assessed as cAMP accumulation; format: functional, cell-based
# [4] = target: T2, Prostaglandin E2 receptor EP4 subtype; test: Agonist activity at EP4 receptor expressed in HEK293 cells assessed as cAMP accumulation; format: functional, cell-based
# [5] = target: T3, Prostaglandin E2 receptor EP3 subtype (Homo sapiens, UniProt P43115); test: Displacement of [3H]PGE2 from human EP3 receptor expressed in HEK293 cells; format: cell-based
# T3 sequence (P43115 whole entry): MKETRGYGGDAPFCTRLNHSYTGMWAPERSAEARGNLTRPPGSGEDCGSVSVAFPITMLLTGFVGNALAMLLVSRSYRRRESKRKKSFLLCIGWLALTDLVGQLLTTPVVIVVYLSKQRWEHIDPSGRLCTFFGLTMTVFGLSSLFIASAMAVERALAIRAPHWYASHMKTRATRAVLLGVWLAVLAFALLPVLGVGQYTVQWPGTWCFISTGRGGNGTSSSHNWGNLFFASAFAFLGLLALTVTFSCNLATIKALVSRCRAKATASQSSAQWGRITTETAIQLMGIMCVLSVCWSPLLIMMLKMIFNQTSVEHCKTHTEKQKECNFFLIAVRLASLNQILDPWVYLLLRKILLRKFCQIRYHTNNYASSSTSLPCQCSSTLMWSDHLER
# [6] = target: T4, Prostaglandin E2 receptor EP1 subtype (Homo sapiens, UniProt P34995); test: Displacement of [3H]PGE2 from human EP1 receptor expressed in HEK293 cells; format: cell-based
# T4 sequence (P34995 whole entry): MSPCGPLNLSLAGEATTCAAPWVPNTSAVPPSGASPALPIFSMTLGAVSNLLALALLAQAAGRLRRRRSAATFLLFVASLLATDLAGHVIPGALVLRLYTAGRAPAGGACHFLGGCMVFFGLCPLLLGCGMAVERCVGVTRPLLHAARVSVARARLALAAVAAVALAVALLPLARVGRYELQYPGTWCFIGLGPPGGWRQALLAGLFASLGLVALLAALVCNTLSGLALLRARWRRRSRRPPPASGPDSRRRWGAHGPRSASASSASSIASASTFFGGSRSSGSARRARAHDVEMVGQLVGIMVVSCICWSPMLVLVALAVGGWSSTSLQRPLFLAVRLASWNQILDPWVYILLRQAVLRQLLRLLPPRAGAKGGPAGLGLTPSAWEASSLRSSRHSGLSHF
# [7] = Half life in rat; format: ADME, organism-based; settings: in vivo
# [8] = Clearance in iv dosed rat; format: ADME, organism-based; settings: in vivo
# Mus musculus = test: Induction of ovulation in orally dosed CD1 mouse; format: functional; settings: CD1, po
# [9] = Bioavailability in rat at 1 mg/kg; format: ADME, organism-based; settings: in vivo
# T1 sequence (P43116 whole entry): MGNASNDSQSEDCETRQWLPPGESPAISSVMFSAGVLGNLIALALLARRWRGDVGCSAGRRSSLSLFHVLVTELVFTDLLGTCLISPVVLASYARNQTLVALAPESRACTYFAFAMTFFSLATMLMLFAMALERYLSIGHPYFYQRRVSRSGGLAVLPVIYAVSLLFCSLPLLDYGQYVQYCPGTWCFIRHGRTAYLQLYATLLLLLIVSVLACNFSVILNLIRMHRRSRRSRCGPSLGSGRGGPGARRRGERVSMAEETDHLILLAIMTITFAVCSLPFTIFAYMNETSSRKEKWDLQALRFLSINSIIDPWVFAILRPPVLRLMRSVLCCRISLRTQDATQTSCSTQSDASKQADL
Structure (SMILES),Ki [1],Ki [2],EC50 [3],EC50 [4],Ki [5],Ki [6],half-life [7],clearance [8],bioavailability [9],ED50 (Mus musculus)
CCCC/C=C(C)/C=C\[C@H]1CCC(=O)N1CCc1ccc(C(=O)O)cc1,802 nM,443 nM,–,–,–,–,–,–,–,–
C/C(=C/C=C/[C@H]1CCC(=O)N1CCc1ccc(C(=O)O)cc1)CC1CCCC1,60 nM,117 nM,–,–,–,–,–,–,–,–
C/C(=C\C=C\[C@H]1CCC(=O)N1CCc1ccc(C(=O)O)cc1)c1ccccc1,749 nM,29 nM,> 10000 nM,0.5 nM,–,–,–,–,–,–
CCCC[C@H](O)/C=C/[C@H]1CCC(=O)N1CCc1ccc(C(=O)O)cc1,126 nM,2.5 nM,16 nM,0.002 nM,9000 nM,> 10000 nM,–,–,–,–
CCCC/C=C\C=C\[C@H]1CCC(=O)N1CCc1ccc(C(=O)O)cc1,88 nM,25 nM,197 nM,2 nM,–,–,–,–,–,–
CCCC/C=C(C)/C=C/[C@H]1CCC(=O)N1CCc1ccc(C(=O)O)cc1,29 nM,–,–,–,–,–,–,–,–,–

# Continued, in another order:
Ki [1],Ki [2],EC50 [3],EC50 [4],Ki [5],Ki [6],half-life [7],clearance [8],bioavailability [9],Structure (SMILES),ED50 (Mus musculus)
134 nM,181 nM,222 nM,15 nM,10000 nM,10000 nM,–,–,–,CCCC/C(C)=C/C=C/[C@H]1CCC(=O)N1CCc1ccc(C(=O)O)cc1,–
60 nM,4 nM,35 nM,0.1 nM,10000 nM,10000 nM,7.7 h,2.5 mL/min/kg,72.6%,CCCC/C(C)=C\C=C\[C@H]1CCC(=O)N1CCc1ccc(C(=O)O)cc1,1 mg/kg
173 nM,24 nM,–,3 nM,–,–,–,–,–,CC/C(C)=C\C=C\[C@H]1CCC(=O)N1CCc1ccc(C(=O)O)cc1,–
1850 nM,45 nM,–,4 nM,–,–,–,–,–,CC(C)=C/C=C/[C@H]1CCC(=O)N1CCc1ccc(C(=O)O)cc1,–
